Results on 32 compounds are retold here after patent publication US5519016A, “Aryl group- or aromatic heterocyclic group-substituted aminoquinolone derivatives and anti-HIV agent” (priority 1992, dated 1996).

In brackets after ≈: the same amount, converted by molar mass. Structures can show the parent of a compound that is named as a salt. Where two headings read alike, the source gives them in different places.

In data set [1] the test system is HIV. As to the kind of experiment: microbe, parasite or virus in culture. Particulars: for S.I. (selective index, CC50 /EC50): CC50 = 50% growth inhibition of non-infected cells, 7200 min; for EC50: Human immunodeficiency virus 1, MT4, 120 h, 50% CPE inhibition in HIV infected MT-4 cells, 5 days, 37° C. The class given is cell-based. The source says: Exponentially growing MT-4 cells were centrifuged, and the pellets were resuspended in RPMI-1640 medium containing 10% fetal serum (serum medium). Portions of the cell suspension were either inoculated with HIV, or left uninfected. Serum medium was then further added to the suspensions, which were then washed and centrifuged. The resulting pellets were then suspended in serum medium to a concentration of 4×10^5 cells/mi. Preparations of the test compound (in serum medium) were […] in a stepwise manner, and 100 μl of each of the solutions were placed in separated wells of a 96-well plastic microtitre plate. 100 μl of each of the cell suspensions (infected and non-infected) were then added to the wells, so that each dilution of each of the test compounds was tested against both infected and noninfected cells. Blanks (not added either of the cells) were also prepared. The preparations were then cultured by standing the plate at 37° C. for 5 days in the presence of 5 % carbon dioxide gas.
At the end of this time, living cells were assayed for CPE inhibitory activity by the spectrophotometric assay of the blue formazan produced by the reduction of MTT [3-(4,5-dimethylthiazol-2-yl) -2,5-diphenyl-tetrazolium bromide]which was added to the preparations.
CPE inhibitory activity was defined as 100% in non-infected cells to which no test compounds had been added, while CPE inhibitory activity was defined as 0% in infected cells to which test compounds had not been added.

For data set [2], the system named is HIV. Particulars: literature / WO-A-90-13542; cited from earlier work.

Turning to `C[C@H]1COc2c(N3CCN(C)CC3)c(F)cc3c(=O)c(C(=O)O)cn1c23` [DR-3355, reference compound], the “anti-HIV activity (in words)” value in the data set on HIV [1] (Pauwel method) is recorded as “have failed”. The “anti-HIV activity (reported)” value in the data set on HIV [2] is “Anti-HIV activity has recently been reported”.
As a reminder, the EC50 is the midpoint of the concentration-response curve. As to `O=C(O)c1cn(C2CC2)c2c(OC(F)F)c(N3CCN(c4nc5ccccc5o4)CC3)c(F)cc2c1=O` [Example 21], in the data set with HIV [1], the “S.I. (selective index, CC50 /EC50)” value worked out at 16 and the EC50 was 0.037 µg/mL (≈ 0.0719 µM).
`CC1Sc2c(C(=O)O)c(=O)c3cc(F)c(N4CCN(c5ncccn5)CC4)cc3n21` (stereo not shown) [Example 100, 6-fluoro-1-methyl-4-oxo-7-[4-(2-pyrimidinyl)piperazin-1-yl]-1H, 4H-[1,3]thiazeto[3,2-a]quinoline-3-carboxylic acid]: in the data set with HIV [1], the “S.I. (selective index, CC50 /EC50)” value came to 9 and the EC50 turned out to be 0.4 µg/mL (≈ 0.936 µM).
`O=C(O)c1cn2c3c(c(N4CCN(c5ncccn5)CC4)c(F)cc3c1=O)OCC2CF` (stereo not shown) [Example 87, 9-fluoro-3-fluoromethyl-10-[4-(2-pyrimidinyl)piperazin-1yl]-2,3-dihydro-7-oxo-7H -pyrido[1,2,3-de][1,4]benzoxazine-6-carboxylic acid]: in the data set on HIV [1], the “S.I. (selective index, CC50 /EC50)” value is recorded as > 512 and a half-maximal effect (EC50) was put at 0.074 µg/mL (≈ 0.167 µM).
With `NC1CCN(c2nc3c(cc2F)c(=O)c(C(=O)O)cn3-c2ccc(F)cc2F)C1` (stereo not shown) [Tosufloxacin, reference compound], the “anti-HIV activity (in words)” value with HIV [1] (Pauwel method) is “little or no anti-HIV activity”. The “anti-HIV activity (reported)” value in the data set on HIV [2] was “anti-HIV activity”.
With `COc1ccccc1N1CCN(c2c(F)c(N)c3c(=O)c(C(=O)O)cn(C(C)C)c3c2OC(F)F)CC1` [Example 29], in the data set with HIV [1], the “S.I. (selective index, CC50 /EC50)” value was 22 and the EC50 worked out at 0.05 µg/mL (≈ 0.0961 µM).
As to `CCn1cc(C(=O)O)c(=O)c2cc(F)c(N3CCN(c4ncccn4)C(C)C3)c(OC(F)F)c21` (stereo not shown) [Example 94, 1-ethyl-6-fluoro-8-difluoromethoxy-7-[3-methyl-4-(2-pyrimidinyl)piperazin-1-yl]-1,4-dihydro-4-oxoquinoline-3-carboxylic acid], in the data set on HIV [1], the “S.I. (selective index, CC50 /EC50)” value amounted to 21 and the 50% effective concentration (EC50) is 0.5 µg/mL (≈ 1.05 µM).
`CCn1cc(C(=O)O)c(=O)c2cc(F)c(N3CCNCC3)cc21` [Norfloxacin, reference compound]: in the data set on HIV [1] (Pauwel method), the “anti-HIV activity (in words)” value is “little or no anti-HIV activity”. Besides, in the data set on HIV [2], the “anti-HIV activity (reported)” value is reported as “anti-HIV activity”.
As for `CCn1cc(C(=O)O)c(=O)c2cc(F)c(N3CCN(c4ncccn4)CC3)nc21` [Example 92], in the data set with HIV [1], the “S.I. (selective index, CC50 /EC50)” value was determined as 31 and the EC50 was determined as 0.8 µg/mL (≈ 2.01 µM).
For `COc1ccccc1N1CCN(c2c(F)cc3c(=O)c(C(=O)O)cn(C)c3c2OC(F)F)CC1` [Example 23, 6-fluoro-8-difluoromethoxy-1-methyl-7-[4-(2-methoxyphenyl)piperazin-1-yl]-1,4-dihydro-4-oxoquinoline-3-carboxylic acid] the same measures were 309 and 0.021 µg/mL (≈ 0.044 µM).
The corresponding values for `O=C(O)c1cn(C2CC2)c2c(OC(F)F)c(N3CCN(c4ncccn4)CC3)c(F)cc2c1=O` [Example 18, 1-cyclopropyl-6-fluoro-8-difluoromethoxy-7-[4-(2-pyrimidinyl)piperazin-1-yl]-1,4-dihydro-4-oxoquinoline-3-carboxylic acid] are 121 and 0.07 µg/mL (≈ 0.147 µM).
As for `O=C(O)c1cn(C2CC2)c2c(OC(F)F)c(N3CCN(c4ncccc4[N+](=O)[O-])CC3)c(F)cc2c1=O` [Example 17], in the data set with HIV [1], the “S.I. (selective index, CC50 /EC50)” value worked out at 250 and the EC50 was determined as 0.5 µg/mL (≈ 0.963 µM).
Consider `CCn1cc(C(=O)O)c(=O)c2cc(F)c(N3CCNCC3)nc21` [Enoxacin, reference compound], for which the “anti-HIV activity (in words)” value with HIV [1] (Pauwel method) is reported as “little or no anti-HIV activity”. In addition, in the data set on HIV [2], the “anti-HIV activity (reported)” value was “anti-HIV activity”.
Take `Cn1cc(C(=O)O)c(=O)c2cc(F)c(N3CCN(c4ncccn4)CC3)c(OC(F)F)c21` [Example 24, 6-fluoro-8-difluoromethoxy-1-methyl-7-[4-(2-pyrimidinyl)piperazin-1-yl]-1,4-dihydro-4-oxoquinoline-3-carboxylic acid]: in the data set on HIV [1], the “S.I. (selective index, CC50 /EC50)” value worked out at 257 and the concentration for a half-maximal effect (EC50) is 0.07 µg/mL (≈ 0.156 µM).
Take `CCn1cc(C(=O)O)c(=O)c2cc(F)c(N3CCN(c4ccccc4OC)CC3)c(OC(F)F)c21` [Example 63, 1-ethyl-6-fluoro-8-difluoromethoxy-7-[4-(2-methoxyphenyl)piperazin-1-yl]-1,4-dihydro-4-oxoquinoline-3carboxylic acid]: in the data set with HIV [1], the “S.I. (selective index, CC50 /EC50)” value stood at 1000 and a half-maximal effect (EC50) was put at 0.01 µg/mL (≈ 0.0203 µM).
As to `O=C(O)c1cn(C2CC2)c2c(OC(F)F)c(N3CCN(c4ccc(F)cc4)CC3)c(F)cc2c1=O` [Example 6], in the data set on HIV [1], the “S.I. (selective index, CC50 /EC50)” value worked out at 34 and the EC50 turned out to be 0.02 µg/mL (≈ 0.0407 µM).
With `COc1ccc(N2CCN(c3c(F)cc4c(=O)c(C(=O)O)cn(C5CC5)c4c3OC(F)F)CC2)cc1` [Example 8, 1-cyclopropyl-6-fluoro-8-difluoromethoxy-7-[4-(4-methoxyphenyl)piperazin-1-yl]-1,4-dihydro-4-oxoquinoline-3carboxylic acid], in the data set on HIV [1], the “S.I. (selective index, CC50 /EC50)” value is 500 and the half-maximal effective concentration (EC50) worked out at 0.1 µg/mL (≈ 0.199 µM).
On to `CCn1cc(C(=O)O)c(=O)c2cc(F)c(N3CCN(c4ncccn4)CC3)c(OC(F)F)c21` [Example 67, 1-ethyl-6-fluoro-8-difluoromethoxy-7-[4-(2-pyrimidinyl)piperazin-1-yl]-1,4-dihydro-4-oxoquinoline-3-carboxylic acid], for which, in the data set on HIV [1], the “S.I. (selective index, CC50 /EC50)” value is > 500 and the response was half-maximal at 0.08 µg/mL (≈ 0.173 µM) (EC50).
Take `O=C(O)c1cn(C2CC2)c2c(OC(F)F)c(N3CCN(c4ncc(Cl)cn4)CC3)c(F)cc2c1=O` [Example 19]: in the data set on HIV [1], the “S.I. (selective index, CC50 /EC50)” value worked out at 57 and the concentration for a half-maximal effect (EC50) was 0.07 µg/mL (≈ 0.137 µM).
For `CNn1cc(C(=O)O)c(=O)c2cc(F)c(N3CCN(c4ncccn4)CC3)c(OC(F)F)c21` [Example 53], in the data set with HIV [1], the “S.I. (selective index, CC50 /EC50)” value was > 83 and the response was half-maximal at 0.3 µg/mL (≈ 0.646 µM) (EC50).
For the compound `CCn1cc(C(=O)O)c(=O)c2cc(F)c(N3CCNC(C)C3)c(F)c21` (stereo not shown) [Lomefloxacin, reference compound], in the data set with HIV [1] (Pauwel method), the “anti-HIV activity (in words)” value was “little or no anti-HIV activity”. In the data set with HIV [2], the “anti-HIV activity (reported)” value is reported as “anti-HIV activity”.
On to `CC(C)(C)n1cc(C(=O)O)c(=O)c2cc(F)c(N3CCN(c4ncccn4)CC3)cc21` [Example 95], for which, in the data set on HIV [1], the “S.I. (selective index, CC50 /EC50)” value is > 62 and the 50% effective concentration (EC50) is 0.4 µg/mL (≈ 0.94 µM).
As for `COc1cccc(N2CCN(c3c(F)cc4c(=O)c(C(=O)O)cn(C5CC5)c4c3OC(F)F)CC2)c1` [Example 7], in the data set on HIV [1], the “S.I. (selective index, CC50 /EC50)” value turned out to be 113 and a half-maximal effect (EC50) was put at 0.22 µg/mL (≈ 0.437 µM).
Turning to `COc1ccccc1N1CCN(c2c(F)cc3c(=O)c(C(=O)O)cn(CCF)c3c2OC(F)F)CC1` [Example 38], in the data set with HIV [1], the “S.I. (selective index, CC50 /EC50)” value is listed as 79 and the midpoint of the response, the EC50, lay at 0.07 µg/mL (≈ 0.137 µM).
For the compound `CCn1cc(C(=O)O)c(=O)c2cc(F)c(N3CCN(c4cnccn4)CC3)c(OC(F)F)c21` [Example 37], in the data set on HIV [1], the “S.I. (selective index, CC50 /EC50)” value is > 109 and a half-maximal response (EC50) required 0.23 µg/mL (≈ 0.496 µM).
Turning to `O=C(O)c1cn(C2CC2)c2cc(N3CCNCC3)c(F)cc2c1=O` [Ciprofloxacin, reference compound], the “anti-HIV activity (in words)” value in the data set on HIV [1] is “little or no anti-HIV activity”. The “anti-HIV activity (reported)” value in the data set on HIV [2] is given as “anti-HIV activity”.
Take `CCn1cc(C(=O)O)c(=O)c2ccc(N3CCN(c4ncccn4)CC3)c(OC(F)F)c21` [Example 99, 1-ethyl-8-difluoromethoxy-7-[4-(2-pyrimidinyl)piperazin-1-yl]-1,4-dihydro-4-oxoquinoline-3-carboxylic acid]: in the data set with HIV [1], the “S.I. (selective index, CC50 /EC50)” value is given as > 25 and it took 1 µg/mL (≈ 2.25 µM) to reach a half-maximal effect (EC50).
As to `COc1ccccc1N1CCN(c2c(F)cc3c(=O)c(C(=O)O)cn(CCOC(C)=O)c3c2OC(F)F)CC1` [Example 46, 1-(2-acetoxyethyl)-6-fluoro-8-difluoromethoxy-7-[4-(2-methoxyphenyl)piperazin-1-yl]-1,4-dihydro-4-oxoquinoline-3-carboxylic acid], in the data set on HIV [1], the “S.I. (selective index, CC50 /EC50)” value was 155 and the EC50 stood at 0.06 µg/mL (≈ 0.109 µM).
As for `CC1COc2c(N3CCN(c4ccccn4)CC3)c(F)cc3c(=O)c(C(=O)O)cn1c23` (stereo not shown) [Example 85], in the data set on HIV [1], the “S.I. (selective index, CC50 /EC50)” value is recorded as 17 and the EC50 was determined as 1 µg/mL (≈ 2.36 µM).
On to `COc1ccccc1N1CCN(c2c(F)cc3c(=O)c(C(=O)O)cn(C4CC4)c3c2OC(F)F)CC1` [Example 1, 1-cyclopropyl-6-fluoro-8-difluoromethoxy-7-[4-(2-methoxyphenyl)piperazin-1-yl]-1,4-dihydro-4-oxoquinoline-3-carboxylic acid.hydrochloride], for which, in the data set with HIV [1], the “S.I. (selective index, CC50 /EC50)” value was found to be 400 and the EC50 turned out to be 0.015 µg/mL.
Regarding `O=C(O)c1cn(C2CC2)c2c(OC(F)F)c(N3CCN(c4ccccc4)CC3)c(F)cc2c1=O` [Example 2, 1-cyclopropyl-6-fluoro-8-difluoromethoxy-7-(4-phenylpiperazin-1-yl)-1,4-dihydro-4-oxoquinoline-3-carboxylic acid], in the data set with HIV [1], the “S.I. (selective index, CC50 /EC50)” value is recorded as 100 and a half-maximal effect (EC50) was put at 0.03 µg/mL (≈ 0.0634 µM).
In the case of `COc1ccccc1N1CCN(c2c(F)cc3c(=O)c(C(=O)O)cn(CCF)c3c2OC)CC1` [Example 70], in the data set with HIV [1], the “S.I. (selective index, CC50 /EC50)” value was 20 and the response was half-maximal at 0.5 µg/mL (≈ 1.06 µM) (EC50).
